Experimental data: ChEMBL document CHEMBL1148670, “Keto-1,3,4-oxadiazoles as cathepsin K inhibitors” (Bioorg Med Chem Lett, 2006)

Tests used:
Details in all cases: read-out: Ki app
Procathepsin L = Procathepsin L (Homo sapiens, UniProt P07711); assay: Inhibition of human cathepsin L
Cathepsin S = Cathepsin S (Homo sapiens, UniProt P25774); assay: Inhibition of human cathepsin S
Cathepsin B = Cathepsin B (Homo sapiens, UniProt P07858); assay: Inhibition of human cathepsin B
Cathepsin K = molecular target: T1, Cathepsin K (Homo sapiens, UniProt P43235); assay: Inhibition of human cathepsin K
T1 sequence (P43235 whole entry): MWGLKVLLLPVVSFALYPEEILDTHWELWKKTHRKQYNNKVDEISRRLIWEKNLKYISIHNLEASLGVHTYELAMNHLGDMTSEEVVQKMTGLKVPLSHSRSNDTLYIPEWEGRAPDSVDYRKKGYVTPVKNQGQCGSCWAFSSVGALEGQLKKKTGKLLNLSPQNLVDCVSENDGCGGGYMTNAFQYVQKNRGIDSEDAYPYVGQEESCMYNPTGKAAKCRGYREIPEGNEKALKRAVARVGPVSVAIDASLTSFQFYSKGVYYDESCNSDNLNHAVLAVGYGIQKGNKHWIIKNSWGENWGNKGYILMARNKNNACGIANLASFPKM

Sequence of Procathepsin L (P07711 whole entry): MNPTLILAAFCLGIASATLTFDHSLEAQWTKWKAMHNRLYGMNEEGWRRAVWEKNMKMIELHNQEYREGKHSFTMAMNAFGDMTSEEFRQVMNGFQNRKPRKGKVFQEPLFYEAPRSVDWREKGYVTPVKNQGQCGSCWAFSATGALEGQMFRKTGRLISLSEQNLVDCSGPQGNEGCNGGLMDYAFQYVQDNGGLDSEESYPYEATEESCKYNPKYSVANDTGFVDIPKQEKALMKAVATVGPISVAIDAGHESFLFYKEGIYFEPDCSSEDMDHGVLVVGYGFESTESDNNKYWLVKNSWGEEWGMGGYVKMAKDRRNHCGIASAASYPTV
Sequence of Cathepsin S (P25774 whole entry): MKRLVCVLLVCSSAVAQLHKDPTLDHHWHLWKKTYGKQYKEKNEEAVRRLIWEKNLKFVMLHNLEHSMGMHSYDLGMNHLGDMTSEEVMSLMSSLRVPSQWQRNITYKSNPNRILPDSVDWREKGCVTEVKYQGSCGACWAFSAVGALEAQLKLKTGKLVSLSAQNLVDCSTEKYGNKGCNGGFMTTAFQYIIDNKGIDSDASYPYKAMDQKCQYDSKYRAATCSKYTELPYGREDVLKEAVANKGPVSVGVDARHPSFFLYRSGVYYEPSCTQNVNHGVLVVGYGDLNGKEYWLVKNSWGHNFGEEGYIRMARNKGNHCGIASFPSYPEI

Row | Ki (Procathepsin L) [nM] | Ki (Cathepsin S) [nM] | Ki (Cathepsin B) [nM] | Ki (Cathepsin K) [nM] | Compound
1 | 1 | < 0.25 | 2 | < 0.25 | CCC[C@H](NC(=O)[C@H](CC(C)C)C(=O)OCc1ccccc1)C(=O)c1nnc(-c2ccco2)o1
2 | 1400 | 3300 | 1100 | 54 | CCC[C@H](NC(=O)C1(NC(=O)c2ccc(OC(F)(F)F)cc2)CCCCC1)C(=O)c1nnc(-c2cccc(C(F)(F)F)c2)o1
3 | 11000 | 13000 | 23000 | 550 | CCC[C@H](NC(=O)C1(NC(=O)c2ccc(OC(F)(F)F)cc2)CCCCC1)C(=O)c1nnc(-c2ccc(C(F)(F)F)cc2)o1
4 | 2900 | 760 | 270 | 5.2 | CCC[C@H](NC(=O)C1(NC(=O)c2ccc(OC(F)(F)F)cc2)CCCCC1)C(=O)c1nnc(-c2cccs2)o1
5 | 10000 | 17000 | 10000 | 1300 | CCC[C@H](NC(=O)C1(NC(=O)c2ccc(OC(F)(F)F)cc2)CCCCC1)C(=O)c1nnc(C(C)(C)C)o1
6 | 1000 | 350 | 220 | 1.7 | CCC[C@H](NC(=O)C1(NC(=O)c2ccc(OC(F)(F)F)cc2)CCCCC1)C(=O)c1nnc(-c2ccco2)o1
7 | 18000 | 960 | 7300 | 43 | CCC[C@H](NC(=O)C1(NC(=O)OC(C)(C)C)CCCCC1)C(=O)c1nnc(-c2ccco2)o1
8 | 960 | 700 | 730 | 0.95 | CCC[C@H](NC(=O)C1(NC(=O)c2ccc(N(C)C)cc2)CCCCC1)C(=O)c1nnc(-c2ccco2)o1
9 | 150000 | 9200 | 110000 | 52000 | CCC[C@H](NC(=O)Cc1ccccc1)C(=O)c1nnc(-c2ccco2)o1
10 | > 150000 | 130000 | > 150000 | 5600 | CCC[C@H](NC(=O)OC(C)(C)C)C(=O)c1nnc(C(C)C)o1
11 | 37000 | 20000 | 57000 | 22 | CCC[C@H](NC(=O)C1(NC(=O)c2ccc(OC(F)(F)F)cc2)CCCCC1)C(=O)c1nnc(-c2ccc(OC)cc2)o1
12 | 63000 | 12000 | 120000 | 810 | CCC[C@H](NC(=O)OC(C)(C)C)C(=O)c1nnc(-c2cccs2)o1
13 | 130000 | 28000 | > 150000 | 33000 | CCC[C@H](NC(=O)OC(C)(C)C)C(=O)c1nnc(-c2ccc(N(C)C)cc2)o1
14 | 4600 | 800 | 430 | 35 | CCC[C@H](NC(=O)C1(NC(=O)c2ccc(OC(F)(F)F)cc2)CCCCC1)C(=O)c1nnc(C(C)C)o1
15 | 2100 | 240 | 48000 | 120 | CCC[C@H](NC(=O)[C@H](CC(C)C)NCC(F)(F)F)C(=O)c1nnc(-c2ccco2)o1
16 | 14000 | 380 | 16000 | 500 | CCC[C@H](NC(=O)OCC(C)C)C(=O)c1nnc(-c2ccco2)o1
17 | 100000 | 2600 | 25000 | 9600 | CCC[C@H](NC(=O)CCc1ccccc1)C(=O)c1nnc(-c2ccco2)o1
18 | 28000 | 2000 | 34000 | 3000 | CCC[C@H](NC(=O)OCc1ccccc1)C(=O)c1nnc(-c2ccco2)o1
19 | 19000 | 45000 | 73000 | 29 | CCC[C@H](NC(=O)C1(NC(=O)c2ccc(OC(F)(F)F)cc2)CCCCC1)C(=O)c1nnc(-c2ccccc2)o1
20 | 7500 | 10000 | 2100 | 37 | CCC[C@H](NC(=O)C1(NC(=O)c2ccc(OC(F)(F)F)cc2)CCCCC1)C(=O)c1nnc(-c2cccc(OC)c2)o1
21 | > 150000 | 19000 | > 150000 | 17000 | CCC[C@H](NC(=O)OC(C)(C)C)C(=O)c1nnc(-c2ccccc2OC)o1
22 | 2900 | 140 | 950 | 19 | CCC[C@H](NC(=O)C1(NC(=O)c2ccc(F)cc2)CCCCC1)C(=O)c1nnc(-c2ccco2)o1
23 | 160 | 320 | 93 | 3.3 | CCC[C@H](NC(=O)C1(NC(=O)c2ccc(OC(F)(F)F)cc2)CCCCC1)C(=O)c1nnc(OC)o1
24 | 300 | 470 | 98 | 7.9 | CCC[C@H](NC(=O)C1(NC(=O)c2ccc(OC(F)(F)F)cc2)CCCCC1)C(=O)c1nnc(CC)o1
